Literature values in US20230010484A1, “METHOD FOR THE DECOLORIZATION OF KERATIN MATERIAL THAT HAS BEEN DYED USING A PIGMENT” (Henkel AG & Co. KGaA, priority 2019, published 2023).

Settings: 25° C.

Row | solubility in water (in words) | SMILES | solubility in water
1 | – | O=C([O-])c1c(Cl)c(Cl)c(Cl)c(Cl)c1-c1c2c(Br)cc(=O)c(Br)c-2oc2c(Br)c(O)cc(Br)c12.O=C([O-])c1c(Cl)c(Cl)c(Cl)c(Cl)c1-c1c2c(Br)cc(=O)c(Br)c-2oc2c(Br)c(O)cc(Br)c12.[Na+].[Na+] [Acid Red 92, disodium salt of 3,4,5,6-tetrachloro-2-(1,4,5,8-tetrabromo-6-hydroxy-3-oxoxanthen-9-yl)benzoic acid] | greater than 10 g/L
2 | – | O=S(=O)([O-])c1ccc(N=Nc2c(O)ccc3ccccc23)cc1.[Na+] [Acid Orange 7, sodium salt of 4-[(2-hydroxy-1-naphthyl)azo]benzene sulphonate] | more than 7 g/L
3 | – | Nc1cc(S(=O)(=O)[O-])cc2cc(S(=O)(=O)[O-])c(N=Nc3ccccc3)c(O)c12.[Na+].[Na+] [Acid Red 33, dinatrium salt of 5-amino-4-hydroxy-3-(phenylazo)-naphthalene-2,7-disulphonate] | about 2.5 g/L
4 | highly soluble | O=C([O-])C1=NN(c2ccc(S(=O)(=O)[O-])cc2)C(=O)C1N=Nc1ccc(S(=O)(=O)[O-])cc1.[Na+].[Na+].[Na+] (stereo not shown) [Acid Yellow 23, trisodium salt of 4,5-dihydro-5-oxo-1-(4-sulfophenyl)-4-((4-sulfophenyl)azo)-1H-pyrazole-3-carboxylic acid] | –
